Reference: patent EP4567040A1, “CRYSTAL FORM OF FUSED TRICYCLIC DERIVATIVE AND PREPARATION METHOD” (Jiangsu Hengrui Pharmaceuticals Co., Ltd., priority 2022, dated 2024)

Key:
Format in all cases: physicochemical
[1] = Influencing factor stability study of crystal forms; details: for physical stability / chemical stability: 30-day influencing factor experiments; for chemical stability: high temperature and high humidity conditions
Method: Example 50. Influencing Factor Stability Study of Crystal Forms Free-state samples were spread out, left to stand in open flasks, and subjected to 30-day stability tests under light exposure (4500 Lux), high temperature (40 °C and 60 °C), and high humidity (RH 75% and RH 92.5%) conditions.

[2] = Long-term/accelerated stability of crystal forms; details: for Purity%: sealed in aluminum foil bag; for Crystal form: after standing up to 6 months
Method: Free-state samples were sealed in aluminum foil bags and left to stand under 25 °C/60% RH and 40 °C/75% RH conditions to test their stability.

[3] = Hygroscopicity study of free-state crystal forms (DVS); details: for 0.0% RH-80.0% RH (hygroscopicity, mass change): DVS, 25 °C; for Crystal form: crystal form after DVS test
Method: Testing was performed using Surface Measurement Systems advantage 2, at 25 °C, with the humidity changing from 50% -95%-0%-95%-50%RH, in steps of 10%. The criterion was that each gradient mass change dM/dT is less than 0.002%, TMAX 360 min, two cycles.
Surface Measurement Systems intrinsic DVS was adopted. At 25 °C, the crystal forms were tested in a humidity range of 0%-95%, with increments of 10%. The criterion was that each gradient mass change dM/dT is less than 0.002%, TMAX 360 min, two cycles.

[4] = Light exposure (4500 Lux), 7 days, open flask
[5] = Light exposure (4500 Lux), 14 days, open flask
[6] = Light exposure (4500 Lux), 30 days, open flask
[7] = long-term accelerated conditions for 6 months

With `C[C@H]1COc2c(-c3nc(N[C@@H]4CCOC[C@H]4O)ncc3Cl)cc(F)c3nc(C(C)(C)O)n1c23` [Crystal form E, (3S,4R)-4-((5-chloro-4-((S)-8-fluoro-2-(2-hydroxypropan-2-yl)-3-methyl-3,4-dihydro-5-oxa-1,2a-diazaacenaphthylen-6-yl)pyrimidin-2-yl)amino)tetrahydro-2H-pyran-3-ol] the physical stability [1] was “good physical stability”, the Purity% ([1]; 40 °C, 7 days, open flask) was 99.9% and the Purity% ([1]; 40 °C, 14 days, open flask) was 99.8%. For the same molecule, the Purity% ([1]; 40 °C, 30 days, open flask) was 99.8%, the Purity% ([1]; 60 °C, 7 days, open flask) was 99.9% and the Purity% ([1]; 60 °C, 14 days, open flask) was 99.9%. It also gave a Purity% ([1]; 60 °C, 30 days, open flask) of 99.9%, a Purity% ([1]; 75% RH, 7 days, open flask) of 99.9% and a Purity% ([1]; 75% RH, 14 days, open flask) of 99.8%. The Purity% ([1]; 75% RH, 30 days, open flask) was 99.8%, the Purity% ([1]; 92.5% RH, 7 days, open flask) was 99.9% and the Purity% ([1]; 92.5% RH, 14 days, open flask) was 99.8%. It also gave a Purity% ([1]; 92.5% RH, 30 days, open flask) of 99.8%, a Purity% ([1]; Initial, 0 days) of 99.9% and a Purity% [1, 4] of 99.6%. For the same molecule, the Purity% [1, 5] was 99.3%, the Purity% [1, 6] was 98.7% and the chemical stability [1] was “good chemical stability”. It also gave a Purity% ([2]; 25 °C/60% RH, 1 month) of 99.9%, a Purity% ([2]; 25 °C/60% RH, 2 months) of 99.9% and a Purity% ([2]; 25 °C/60% RH, 3 months) of 99.9%. The Purity% ([2]; 25 °C/60% RH, 6 months) was 99.9%, the Purity% ([2]; 25 °C/60% RH, 14 days) was 99.9% and the Purity% ([2]; 25 °C/60% RH, Initial) was 99.9%. For the same molecule, the Crystal form ([2]; 25 °C/60% RH) was “No change”, the Purity% ([2]; 40 °C/75% RH, 1 month) was 99.9% and the Purity% ([2]; 40 °C/75% RH, 2 months) was 99.9%. The Purity% ([2]; 40 °C/75% RH, 3 months) was 99.9%, the Purity% ([2]; 40 °C/75% RH, 6 months) was 99.9% and the Purity% ([2]; 40 °C/75% RH, 14 days) was 99.9%. The Purity% ([2]; 40 °C/75% RH, Initial) was 99.9%, the Crystal form ([2]; 40 °C/75% RH) was “No change” and the “physical stability and chemical stability” value [2, 7] was “good physical stability and chemical stability”. For the same molecule, the “0.0% RH-80.0% RH (hygroscopicity, mass change)” value [3] was 3.45% and the Crystal form [3] was “No change”.
In the case of `C[C@H]1COc2c(-c3nc(N[C@@H]4CCOC[C@H]4O)ncc3Cl)cc(F)c3nc(C(C)(C)O)n1c23` [Crystal form F, (3S,4R)-4-((5-chloro-4-((S)-8-fluoro-2-(2-hydroxypropan-2-yl)-3-methyl-3,4-dihydro-5-oxa-1,2a-diazaacenaphthylen-6-yl)pyrimidin-2-yl)amino)tetrahydro-2H-pyran-3-ol], the physical stability [1] is reported as “good physical stability”, the chemical stability [1] is reported as “good chemical stability” and the Purity% ([2]; 25 °C/60% RH, 1 month) is reported as 99.9%. For the same molecule, the Purity% ([2]; 25 °C/60% RH, 2 months) was 99.9%, the Purity% ([2]; 25 °C/60% RH, 3 months) was 99.9% and the Purity% ([2]; 25 °C/60% RH, 6 months) was 99.9%. For the same molecule, the Purity% ([2]; 25 °C/60% RH, 14 days) was 99.9%, the Purity% ([2]; 25 °C/60% RH, Initial) was 99.9% and the Crystal form ([2]; 25 °C/60% RH) was “No change”. The Purity% ([2]; 40 °C/75% RH, 1 month) was 99.9%, the Purity% ([2]; 40 °C/75% RH, 2 months) was 99.9% and the Purity% ([2]; 40 °C/75% RH, 3 months) was 99.9%. For the same molecule, the Purity% ([2]; 40 °C/75% RH, 6 months) was 99.9%, the Purity% ([2]; 40 °C/75% RH, 14 days) was 99.9% and the Purity% ([2]; 40 °C/75% RH, Initial) was 99.9%. The Crystal form ([2]; 40 °C/75% RH) was “No change”, the “physical stability and chemical stability” value [2, 7] was “good physical stability and chemical stability” and the “0.0% RH-80.0% RH (hygroscopicity, mass change)” value [3] was 1.10%. For the same molecule, the Crystal form [3] was “No change”.
With `C[C@H]1COc2c(-c3nc(N[C@@H]4CCOC[C@H]4O)ncc3Cl)cc(F)c3nc(C(C)(C)O)n1c23` [Free-state amorphous form, (3S,4R)-4-((5-chloro-4-((S)-8-fluoro-2-(2-hydroxypropan-2-yl)-3-methyl-3,4-dihydro-5-oxa-1,2a-diazaacenaphthylen-6-yl)pyrimidin-2-yl)amino)tetrahydro-2H-pyran-3-ol] the physical stability [1] was “good physical stability”, the Crystal form ([1]; 40 °C, 7 days, open flask) was “No change” and the Crystal form ([1]; 40 °C, 14 days, open flask) was “No change”. For the same molecule, the Crystal form ([1]; 40 °C, 30 days, open flask) was “No change”, the Crystal form ([1]; 60 °C, 7 days, open flask) was “No change” and the Crystal form ([1]; 60 °C, 14 days, open flask) was “No change”. The Crystal form ([1]; 60 °C, 30 days, open flask) was “No change”, the Crystal form ([1]; 75% RH, 7 days, open flask) was “No change” and the Crystal form ([1]; 75% RH, 14 days, open flask) was “No change”. For the same molecule, the Crystal form ([1]; 75% RH, 30 days, open flask) was “No change”, the Crystal form ([1]; 92.5% RH, 7 days, open flask) was “No change” and the Crystal form ([1]; 92.5% RH, 14 days, open flask) was “No change”. The Crystal form ([1]; 92.5% RH, 30 days, open flask) was “No change”, the Crystal form ([1]; Initial, 0 days) was “Free-state amorphous form” and the Crystal form [1, 4] was “No change”. For the same molecule, the Crystal form [1, 5] was “No change”, the Crystal form [1, 6] was “No change” and the chemical stability [1] was “good chemical stability”. It also gave a Purity% ([2]; 25 °C/60% RH, 1 month) of 99.0%, a Purity% ([2]; 25 °C/60% RH, 2 months) of 98.9% and a Purity% ([2]; 25 °C/60% RH, 6 months) of 98.8%. For the same molecule, the Purity% ([2]; 25 °C/60% RH, 14 days) was 99.0%, the Purity% ([2]; 25 °C/60% RH, Initial) was 99.0% and the Crystal form ([2]; 25 °C/60% RH) was “No change”. It also gave a Purity% ([2]; 40 °C/75% RH, 1 month) of 99.0%, a Purity% ([2]; 40 °C/75% RH, 2 months) of 98.9% and a Purity% ([2]; 40 °C/75% RH, 6 months) of 98.8%. For the same molecule, the Purity% ([2]; 40 °C/75% RH, 14 days) was 99.0%, the Purity% ([2]; 40 °C/75% RH, Initial) was 99.0% and the Crystal form ([2]; 40 °C/75% RH) was “Deliquescence”. For the same molecule, the deliquescence ([2]; accelerated conditions) was “deliquescence” and the “physical stability and chemical stability” value ([2]; under other conditions (than those giving deliquescence)) was “good physical stability and chemical stability”.
In the case of `C[C@H]1COc2c(-c3nc(N[C@@H]4CCOC[C@H]4O)ncc3Cl)cc(F)c3nc(C(C)(C)O)n1c23` [Crystal form D, (3S,4R)-4-((5-chloro-4-((S)-8-fluoro-2-(2-hydroxypropan-2-yl)-3-methyl-3,4-dihydro-5-oxa-1,2a-diazaacenaphthylen-6-yl)pyrimidin-2-yl)amino)tetrahydro-2H-pyran-3-ol], the physical stability [1] is reported as “good physical stability”, the Purity% ([1]; 40 °C, 7 days, open flask) is reported as 99.9% and the Purity% ([1]; 40 °C, 14 days, open flask) is reported as 99.9%. For the same molecule, the Purity% ([1]; 40 °C, 30 days, open flask) was 99.9%, the Purity% ([1]; 60 °C, 7 days, open flask) was 99.9% and the Purity% ([1]; 60 °C, 14 days, open flask) was 99.9%. For the same molecule, the Purity% ([1]; 60 °C, 30 days, open flask) was 99.9%, the Purity% ([1]; 75% RH, 7 days, open flask) was 99.9% and the Purity% ([1]; 75% RH, 14 days, open flask) was 99.9%. The Purity% ([1]; 75% RH, 30 days, open flask) was 99.9%, the Purity% ([1]; 92.5% RH, 7 days, open flask) was 99.9% and the Purity% ([1]; 92.5% RH, 14 days, open flask) was 99.9%. It also gave a Purity% ([1]; 92.5% RH, 30 days, open flask) of 99.9%, a Purity% ([1]; Initial, 0 days) of 99.9% and a Purity% [1, 4] of 96.0%. The Purity% [1, 5] was 94.6%, the Purity% [1, 6] was 92.8% and the chemical stability [1] was “good chemical stability”. For the same molecule, the Purity% ([2]; 25 °C/60% RH, 1 month) was 99.9%, the Purity% ([2]; 25 °C/60% RH, 2 months) was 99.9% and the Purity% ([2]; 25 °C/60% RH, 3 months) was 99.9%. It also gave a Purity% ([2]; 25 °C/60% RH, 6 months) of 99.9%, a Purity% ([2]; 25 °C/60% RH, 14 days) of 99.9% and a Purity% ([2]; 25 °C/60% RH, Initial) of 99.9%. For the same molecule, the Crystal form ([2]; 25 °C/60% RH) was “No change”, the Purity% ([2]; 40 °C/75% RH, 1 month) was 99.9% and the Purity% ([2]; 40 °C/75% RH, 2 months) was 99.9%. It also gave a Purity% ([2]; 40 °C/75% RH, 3 months) of 99.9%, a Purity% ([2]; 40 °C/75% RH, 6 months) of 99.9% and a Purity% ([2]; 40 °C/75% RH, 14 days) of 99.9%. The Purity% ([2]; 40 °C/75% RH, Initial) was 99.9%, the Crystal form ([2]; 40 °C/75% RH) was “No change” and the “physical stability and chemical stability” value [2, 7] was “good physical stability and chemical stability”. For the same molecule, the “0.0% RH-80.0% RH (hygroscopicity, mass change)” value [3] was 0.46% and the Crystal form [3] was “No change”.
